For this assay, the target named is T1, human μ-opiate receptor (Homo sapiens, UniProt P35372).
T1 construct: purchased PerkinElmer Life Sciences, Zaventem, Belgium RB-HOM; host or cells: CHO-K1 cells (recombinant expression; membrane preparation)
T1 sequence (P35372 whole entry): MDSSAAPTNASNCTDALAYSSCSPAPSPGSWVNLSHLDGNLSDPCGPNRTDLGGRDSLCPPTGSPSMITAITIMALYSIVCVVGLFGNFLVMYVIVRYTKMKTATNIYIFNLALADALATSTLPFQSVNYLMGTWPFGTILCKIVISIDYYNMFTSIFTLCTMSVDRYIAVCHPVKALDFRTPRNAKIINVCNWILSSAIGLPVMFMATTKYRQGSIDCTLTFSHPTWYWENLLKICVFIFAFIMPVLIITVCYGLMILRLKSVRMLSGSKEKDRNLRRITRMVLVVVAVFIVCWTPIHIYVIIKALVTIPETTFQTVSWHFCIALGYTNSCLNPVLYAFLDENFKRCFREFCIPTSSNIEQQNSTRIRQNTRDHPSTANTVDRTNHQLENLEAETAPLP
As to the kind of experiment: Affinity for the human μ-opiate receptor ([3H]-naloxone displacement, SPA). The settings on record: Table 2, Examples 11-161; test substance 1 μmole/l; inhibition of specific [3H]-naloxone binding; CHO-K1 membranes; read-out: μ-Opioid receptor, % inhibition [1 μM]. The gist of the method:
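CHO-K1 membranes expressing the receptor, incubated 90 min at room temperature with 1 nmol/l [3H]-naloxone and WGA-SPA beads in 50 mmol/l Tris-HCl with 0.06% BSA. Non-specific binding defined with 100 μmol/l naloxone. Value is % inhibition of specific binding at 1 μmol/l test substance.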
In general, inhibition refers to the relative decrease from the control value, in per cent. Consider `COC(=O)C1(CSCc2ccccc2)N=CN(Cc2ccccc2)C1CC1CCC(C(c2ccc(Cl)cc2)N(C)C)CC1` (centres unmarked) [Example 101, 1-benzyl-4-benzylsulfanylmethyl-5-{4-[(4-chlorophenyl)-dimethylaminomethyl]-cyclohexylmethyl}-4,5-dihydro-1H-imidazole-4-carboxylic acid methyl ester], for which the inhibition at 1 µM was found to be 96%.
Take `CCCC1(C(=O)OC)N=CN(C2CCCCC2)C1CC1CCC(C(c2cccc(F)c2)N(C)C)CC1` (centres unmarked) [Example 102, 1-cyclohexyl-5-{4-[dimethylamino-(3-fluorophenyl)-methyl]-cyclohexylmethyl}-4-propyl-4,5-dihydro-1H-imidazole-4-carboxylic acid methyl ester]: the inhibition at 1 µM came to 91%.
For `COC(=O)C1(CCSC)N=CN(C2CCCCC2)C1CC1CCC(C(c2cccc(F)c2)N(C)C)CC1` (centres unmarked) [Example 103, 1-cyclohexyl-5-{4-[dimethylamino-(3-fluorophenyl)-methyl]-cyclohexylmethyl}-4-(2-methylsulfanyl-ethyl)-4,5-dihydro-1H-imidazole-4-carboxylic acid methyl ester], the inhibition at 1 µM is 99%.
As for `COC(=O)C1(C)N=CN(C2CCCCC2)C1CC1CCC(C(c2cccc(F)c2)N(C)C)CC1` (centres unmarked) [Example 104, 1-cyclohexyl-5-{4-[dimethylamino-(3-fluorophenyl)-methyl]-cyclohexylmethyl}-4-methyl-4,5-dihydro-1H-imidazole-4-carboxylic acid methyl ester], the inhibition at 1 µM was found to be 93%.
With `CCCC1(C(=O)OC)N=CN(C2CCCCC2)C1CC1CCC(C(c2ccc(F)cc2)N(C)C)CC1` (centres unmarked) [Example 105, 1-cyclohexyl-5-{4-[dimethylamino-(4-fluorophenyl)-methyl]-cyclohexylmethyl}-4-propyl-4,5-dihydro-1H-imidazole-4-carboxylic acid methyl ester], the inhibition at 1 µM was determined as 95%.
On to `COC(=O)C1(CCSC)N=CN(C2CCCCC2)C1CC1CCC(C(c2ccc(F)cc2)N(C)C)CC1` (centres unmarked) [Example 106, 1-cyclohexyl-5-{4-[dimethylamino-(4-fluorophenyl)-methyl]-cyclohexylmethyl}-4-(2-methylsulfanyl-ethyl)-4,5-dihydro-1H-imidazole-4-carboxylic acid methyl ester], for which the inhibition at 1 µM was determined as 92%.
As for `COC(=O)C1(C)N=CN(C2CCCCC2)C1CC1CCC(C(c2ccc(F)cc2)N(C)C)CC1` (centres unmarked) [Example 107, 1-cyclohexyl-5-{4-[dimethylamino-(4-fluorophenyl)-methyl]-cyclohexylmethyl}-4-methyl-4,5-dihydro-1H-imidazole-4-carboxylic acid methyl ester], the inhibition at 1 µM was 87%.
Regarding `CCCC1(C(=O)OC)N=CN(C2CCCCC2)C1CC1CCC(C(CCc2ccccc2)N(C)C)CC1` (centres unmarked) [Example 108, 1-cyclohexyl-5-[4-(1-dimethylamino-3-phenylpropyl)-cyclohexylmethyl]-4-propyl-4,5-dihydro-1H-imidazole-4-carboxylic acid methyl ester], the inhibition at 1 µM amounted to 86%.
Take `COC(=O)C1(CCSC)N=CN(C2CCCCC2)C1CC1CCC(C(CCc2ccccc2)N(C)C)CC1` (centres unmarked) [Example 109, 1-cyclohexyl-5-[4-(1-dimethylamino-3-phenylpropyl)-cyclohexylmethyl]-4-(2-methylsulfanyl-ethyl)-4,5-dihydro-1H-imidazole-4-carboxylic acid methyl ester]: the inhibition at 1 µM is 87%.
For `COC(=O)C1(C)N=CN(C2CCCCC2)C1CC1CCC(C(CCc2ccccc2)N(C)C)CC1` (centres unmarked) [Example 110, 1-cyclohexyl-5-[4-(1-dimethylamino-3-phenylpropyl)-cyclohexylmethyl]-4-methyl-4,5-dihydro-1H-imidazole-4-carboxylic acid methyl ester] the value was 67%.
As to `CCCN1C=NC(CCC)(C(=O)OC)C1CC1CCC(C(c2cccc(F)c2)N(C)C)CC1` (centres unmarked) [Example 111, 5-{4-[dimethylamino-(3-fluorophenyl)-methyl]-cyclohexylmethyl}-1,4-dipropyl-4,5-dihydro-1H-imidazole-4-carboxylic acid methyl ester], the inhibition at 1 µM was 90%.
As for `CCCN1C=NC(CCSC)(C(=O)OC)C1CC1CCC(C(c2cccc(F)c2)N(C)C)CC1` (centres unmarked) [Example 112, 5-{4-[dimethylamino-(3-fluorophenyl)-methyl]-cyclohexylmethyl}-4-(2-methylsulfanyl-ethyl)-1-propyl-4,5-dihydro-1H-imidazole-4-carboxylic acid methyl ester], the inhibition at 1 µM came to 95%.
Regarding `COC(=O)C1(Cc2ccc(Cl)cc2)N=CN(Cc2ccccc2)C1CC1CCC(C(c2ccc(Cl)cc2)N(C)C)CC1` (centres unmarked) [Example 113, 1-benzyl-4-(4-chlorobenzyl)-5-{4-[(4-chlorophenyl)-dimethylaminomethyl]-cyclohexylmethyl}-4,5-dihydro-1H-imidazole-4-carboxylic acid methyl ester], the inhibition at 1 µM stood at 92%.
On to `CCCCC1(C(=O)OC)N=CN(Cc2ccccc2)C1CC1CCC(C(c2ccc(Cl)cc2)N(C)C)CC1` (centres unmarked) [Example 114, 1-benzyl-4-butyl-5-{4-[(4-chlorophenyl)-dimethylaminomethyl]-cyclohexylmethyl}-4,5-dihydro-1H-imidazole-4-carboxylic acid methyl ester], for which the inhibition at 1 µM came out at 86%.
With `COC(=O)CCC1(C(=O)OC)N=CN(C2CCCCC2)C1C1CCC(C(c2cccc(F)c2)N(C)C)CC1` (centres unmarked) [Example 115, 1-cyclohexyl-5-{4-[dimethylamino-(3-fluorophenyl)-methyl]-cyclohexyl}-4-(2-methoxycarbonylethyl)-4,5-dihydro-1H-imidazole-4-carboxylic acid methyl ester], the inhibition at 1 µM came out at 98%.
Regarding `COC(=O)C1(CSCc2ccccc2)N=CN(C2CCCCC2)C1C1CCC(C(c2cccc(F)c2)N(C)C)CC1` (centres unmarked) [Example 116, 4-benzylsulfanylmethyl-1-cyclohexyl-5-{4-[dimethylamino-(3-fluorophenyl)-methyl]-cyclohexyl}-4,5-dihydro-1H-imidazole-4-carboxylic acid methyl ester], the inhibition at 1 µM worked out at 101%.
`CCCN1C=NC(C)(C(=O)OC)C1CC1CCC(C(c2cccc(F)c2)N(C)C)CC1` (centres unmarked) [Example 117, 5-{4-[dimethylamino-(3-fluorophenyl)-methyl]-cyclohexylmethyl}-4-methyl-1-propyl-4,5-dihydro-1H-imidazole-4-carboxylic acid methyl ester]: the inhibition at 1 µM is 88%.
Next, `CCCN1C=NC(CCC)(C(=O)OC)C1CC1CCC(C(c2ccc(F)cc2)N(C)C)CC1` (centres unmarked) [Example 118, 5-{4-[dimethylamino-(4-fluorophenyl)-methyl]-cyclohexylmethyl}-1,4-dipropyl-4,5-dihydro-1H-imidazole-4-carboxylic acid methyl ester]: 87%.
In the case of `CCCN1C=NC(CCSC)(C(=O)OC)C1CC1CCC(C(c2ccc(F)cc2)N(C)C)CC1` (centres unmarked) [Example 119, 5-{4-[dimethylamino-(4-fluorophenyl)-methyl]-cyclohexylmethyl}-4-(2-methylsulfanylethyl)-1-propyl-4,5-dihydro-1H-imidazole-4-carboxylic acid methyl ester], the inhibition at 1 µM is 90%.
For the compound `CCCN1C=NC(CCC)(C(=O)OC)C1CC1CCC(C(CCc2ccccc2)N(C)C)CC1` (centres unmarked) [Example 120, 5-[4-(1-dimethylamino-3-phenylpropyl)-cyclohexylmethyl]-1,4-dipropyl-4,5-dihydro-1H-imidazole-imidazole-4-carboxylic acid methyl ester], the inhibition at 1 µM was 62%.
With `CCCN1C=NC(CCSC)(C(=O)OC)C1CC1CCC(C(CCc2ccccc2)N(C)C)CC1` (centres unmarked) [Example 121, 5-[4-(1-dimethylamino-3-phenylpropyl)-cyclohexylmethyl]-4-(2-methylsulfanylethyl)-1-propyl-4,5-dihydro-1H-imidazole-4-carboxylic acid methyl ester], the inhibition at 1 µM turned out to be 77%.
Next, `CCCCN1C=NC(CCSC)(C(=O)OC)C1CC1CCC(C(c2cccc(F)c2)N(C)C)CC1` (centres unmarked) [Example 123, 1-butyl-5-{4-[dimethylamino-(3-fluorophenyl)-methyl]-cyclohexylmethyl}-4-(2-methylsulfanylethyl)-4,5-dihydro-1H-imidazole-4-carboxylic acid methyl ester]: 98%.
Consider `CCCCN1C=NC(C)(C(=O)OC)C1CC1CCC(C(c2cccc(F)c2)N(C)C)CC1` (centres unmarked) [Example 124, 1-butyl-5-{4-[dimethylamino-(3-fluorophenyl)-methyl]-cyclohexylmethyl}-4-methyl-4,5-dihydro-1H-imidazole-4-carboxylic acid methyl ester], for which the inhibition at 1 µM amounted to 95%.
On to `CCCCN1C=NC(CCC)(C(=O)OC)C1CC1CCC(C(c2ccc(F)cc2)N(C)C)CC1` (centres unmarked) [Example 125, 1-butyl-5-{4-[dimethylamino-(4-fluorophenyl)-methyl]-cyclohexylmethyl}-4-propyl-4,5-dihydro-1H-imidazole-4-carboxylic acid methyl ester], for which the inhibition at 1 µM came to 91%.
For `CCCCN1C=NC(CCSC)(C(=O)OC)C1CC1CCC(C(c2ccc(F)cc2)N(C)C)CC1` (centres unmarked) [Example 126, 1-butyl-5-{4-[dimethylamino-(4-fluorophenyl)-methyl]-cyclohexylmethyl}-4-(2-methylsulfanyl-ethyl)-4,5-dihydro-1H-imidazole-4-carboxylic acid methyl ester] the value was 98%; for `CCCCN1C=NC(CCC)(C(=O)OC)C1CC1CCC(C(CCc2ccccc2)N(C)C)CC1` (centres unmarked) [Example 127, 1-butyl-5-[4-(1-dimethylamino-3-phenylpropyl)-cyclohexylmethyl]-4-propyl-4,5-dihydro-1H-imidazole-4-carboxylic acid methyl ester], 74%.

These data come from patent publication US7728028B2, “Substituted imidazoline compounds” (Gruenenthal GmbH, priority 2005, dated 2010).
